Test results: US5142095A, “Diarylalkanoids having activity as lipoxygenase inhibitors” (Warner-Lambert Company, priority 1989, dated 1992)

Columns and labels:
5-lipoxygenase = target: T1, 5-lipoxygenase (Homo sapiens, UniProt P09917); experiment: 5-Lipoxygenase Assay Using Isolated Human Leukocytes (5LOA2), 5-HETE formation; assay type: cell-based; details: for inhibition at 20 µM: read-out: 5-LOA % inhibition at 20 μM; for IC50: 50% inhibition of 5-HETE formation in human leukocytes, 20 μM arachidonic acid, 10 μM A23187, read-out: 5-LOA IC50
T1 construct: endogenous in cells; host or cells: leukocytes isolated from fresh human blood
T1 sequence (P09917 1-674): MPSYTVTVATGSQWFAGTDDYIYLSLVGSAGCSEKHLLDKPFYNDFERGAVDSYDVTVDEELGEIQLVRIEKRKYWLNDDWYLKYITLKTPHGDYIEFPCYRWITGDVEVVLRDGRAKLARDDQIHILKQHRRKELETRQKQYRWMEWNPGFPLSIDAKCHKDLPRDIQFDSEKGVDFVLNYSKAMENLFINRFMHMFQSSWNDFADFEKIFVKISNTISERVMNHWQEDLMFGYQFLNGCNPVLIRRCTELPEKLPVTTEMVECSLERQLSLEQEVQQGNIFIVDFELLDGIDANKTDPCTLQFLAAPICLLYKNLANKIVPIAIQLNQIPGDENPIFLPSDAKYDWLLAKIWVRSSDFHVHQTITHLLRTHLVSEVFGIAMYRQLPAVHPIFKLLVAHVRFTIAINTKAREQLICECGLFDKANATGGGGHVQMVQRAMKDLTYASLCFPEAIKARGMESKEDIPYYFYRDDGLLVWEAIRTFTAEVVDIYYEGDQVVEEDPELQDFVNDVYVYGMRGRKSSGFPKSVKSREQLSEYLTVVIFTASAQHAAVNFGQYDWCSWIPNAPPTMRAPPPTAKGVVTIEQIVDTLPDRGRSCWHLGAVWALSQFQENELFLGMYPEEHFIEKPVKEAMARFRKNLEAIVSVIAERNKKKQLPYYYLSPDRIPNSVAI
Method: 5-Lipoxygenase Assay Using Isolated Human Leukocytes (5LOA2)
The formation of 5-HETE in human leukocytes is considered a measure of 5-lipoxygenase activity. The protocol is described in the following.
Fresh heparinized or EDTA treated human blood is mixed with 6% dextran-3% dextrose in isotonic saline in the ratio 0.25 ml dextran solution per 1.0 ml blood. After mixing the blood is allowed to sit at room temperature for about 90 minutes while the RBC's settle. During this period, the plasma is removed with a plastic pipette to nalgens tubes.
The plasma is centrifuged at 800 rpm ([…]) on the Beckman Td-b refrigerated centrifuge to remove the platelets (which remain in the supernatant). The pellet, consisting of leukocytes and erythrocytes, is treated with 10 ml 0.87% ammonium chloride at room temperature for four minutes, lysing the red cells. At the end of four minutes the cells are diluted with a 2× volume of phosphate buffered saline, pH 7.4, and centrifuged for ten minutes. The cells are washed three times with the phosphate buffered saline. Any of the pelleted cell matter which is not easily resuspended is discarded during the washings--the material contains platelets (12-lipoxygenase activity).
After washing, the cells are resuspended in phosphate buffered saline containing 1.0 mM calcium and 0.5 mM magnesium. After counting, the cells are diluted to 1.5-2.0×10^-7 leukocytes per milliliter.
To each poly propylene reaction tube is added 0.48 ml leukocytes in Ca-Mg phosphate buffered saline, pH 7.4; 1-5 μl test compound dissolved in DMSO and buffer; or DMSO for control tubes.
The tubes preincubate at 37° C. for five minutes.
The reaction is started by adding 20 μl of the following, 0.5 μl, 20 mM arachidonic acid--final concentration =20 μm; 1 μl, 5 mM calcium ionophore A23187--final concentration =10 μm; and 18.5 μl buffer.
The reaction proceeds for five minutes, then is stopped by adding 0.5 ml, 0.5 mM ice cold Tris buffer, pH 8.0. The tubes are chilled on ice for ten minutes and then extracted three times with a total of 3.5 ml ethyl acetate (3.0 ml removed).
The tubes can be stored at this point. For extended storage, the tubes should be filled with nitrogen.
The ethyl acetate is evaporated with a Sorvall Speed-Vac. The residue is dissolved in ethanol. The tubes can also be stored at this point at -20° C. under nitrogen.
A portion of the ethanol solution is injected into the HPLC system for 5-HETE quantitation.
The HPLC system consists of Hewlett-Packard 1040A UV spectrophotometry system with an HP85 computer. Injections are made automatically with a Waters WISP 710B. The pump is a Spectra Physics SP8700. Peaks are measured with a Hewlett Packard 3390A integrator. An RP C-18 column is used. The solvent system is isocratic; the solvent is 70% methanol and 30% 0.01M sodium acetate, pH 5.7, pumped at 1.0 ml/min. The flow is monitored at 235 nm for 5-HETE quantitation. Using a 15 cm Alltech Nucleosil C-18 5 μM column provides for a sample turnaround time of about 16 minutes.
IC50 is calculated as the amount of test agent that causes 50% inhibition of the formation of 5-HETE relative to the control.

Cyclooxygenase = target: T2, Cyclooxygenase (Bos taurus, UniProt O62664); experiment: Cyclooxygenase Enzyme Assay (BSV), bovine seminal vesicle powder, PGE2 formation; assay type: biochemical; details: 100 μM arachidonic acid, 20 minutes
T2 construct: The assay consists of incubating 2 mg bovine seminal vesicle powder; from tissue; host or cells: bovine seminal vesicle powder
T2 sequence (O62664 25-600): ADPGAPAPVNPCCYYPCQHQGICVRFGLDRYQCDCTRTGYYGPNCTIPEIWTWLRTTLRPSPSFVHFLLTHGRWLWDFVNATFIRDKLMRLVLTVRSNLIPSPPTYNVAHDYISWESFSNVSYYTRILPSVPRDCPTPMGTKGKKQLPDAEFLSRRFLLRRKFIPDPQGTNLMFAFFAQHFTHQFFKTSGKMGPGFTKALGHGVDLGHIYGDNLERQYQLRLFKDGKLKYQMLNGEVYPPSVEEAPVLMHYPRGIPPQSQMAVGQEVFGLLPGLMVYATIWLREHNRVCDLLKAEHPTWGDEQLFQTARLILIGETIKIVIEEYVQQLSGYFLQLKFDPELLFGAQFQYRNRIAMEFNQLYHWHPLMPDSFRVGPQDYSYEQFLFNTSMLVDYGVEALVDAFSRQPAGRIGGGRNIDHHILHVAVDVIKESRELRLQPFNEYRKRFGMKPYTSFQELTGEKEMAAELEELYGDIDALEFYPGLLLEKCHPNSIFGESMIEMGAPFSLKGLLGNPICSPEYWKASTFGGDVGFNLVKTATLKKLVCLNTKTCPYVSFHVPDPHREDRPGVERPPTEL
Method: Cyclooxygenase Enzyme Assay (BSV) […]
The assay consists of incubating 2 mg bovine seminal vesicle powder with 2 mM epinephrine, 2.5 mM reduced glutathione, 100 μM arachidonic acid, and the test agent for 20 minutes. The reaction mixture is acidified and extracted with ethyl acetate (3×1.0 ml) and the pooled extract is evaporated to dryness using a Speed Vac Concentrator or under a stream of nitrogen. The residue is dissolved in ethanol An aliquot is applied on 20×20 cm silica gel plate and developed using water:ethyl acetate:hexane:acetic acid (60:54:25:12.5, upper phase) to separate PGE2 from arachidonic acid. ^14 C-PGE2 formed is identified by co-chromatography with authentic ^3 H-PGE2 and the amount of radioacitvity is quantitated using an automatic TLC linear scanner (Berthold, Pittsburgh, Pa.) linked to an Apple II-e computer and an ICso is calculated as the amount of test agent causing 50% inhibition of Cyclooxygenase Enzyme relative to the control.

SMILES	inhibition at 20 µM (5-lipoxygenase) [%]	IC50 (5-lipoxygenase) [µM]	IC50 (Cyclooxygenase) [µM]
O=C(/C=C/c1ccc(C(=O)O)cc1)CCCCc1ccccc1 [Example 6]	19	–	–
COc1ccc(C=CC(=O)CCCCc2ccccc2)cc1O [Example 1, 1-(3-Hydroxy-4-methoxyphenyl)-7-phenyl-1-hepten3-one]	–	11	–
Nc1cc(/C=C/C(CCc2ccccc2)=NO)ccc1O (single isomer, unassigned) [23 (Isomer B), 1-Penten-3-one, 1-(3-amino-4-hydroxyphenyl)-5-phenyl, oxime]	–	0.26	90
O=C(/C=C/c1ccc(O)c(CO)c1)CCCCc1ccccc1 [Example 4]	17	–	–
COc1cc(C=CC(=O)CSc2ccccc2)ccc1O [Example 16A, 1-(4-Hydroxy-3-methoxyphenyl)-4-phenylthio-1-butene-3-one]	–	12	–
COc1cc(/C=C/C(=O)CCc2ccccc2)ccc1O [Example 9]	–	15	31
COc1cc(C=CC(=O)CCCOc2ccccc2)ccc1O [Example 14, 1-(4-Hydroxy-3-methoxyphenyl)-6-phenoxy-1-hexene-3-one]	–	11	31
COc1ccc(/C=C/C(CCCCc2ccccc2)=NO)cc1O [Example 18]	–	5.9	–
COc1cc(C=CC(=O)CCc2ccc(O)c(OC)c2)ccc1O [Example 13, 1-Penten-3-one, 1,5-bis(4-hydroxy-3-methoxyphenyl)]	–	19	84
COc1cc(C=CC(CCCOc2ccccc2)=NO)ccc1O [Example 25, 1-(4-Hydroxy-3-methoxyphenyl)-6-phenoxy-1-hexen-3-one oxime]	–	0.71	170
COc1cc(C=CC(=O)COc2ccccc2)ccc1O [Example 16, 1(4'-Hydroxy-3'-methoxyphenyl)-4-phenoxy-1-butene-3-one]	–	20	130
O=C(/C=C/c1ccc(O)c(Cl)c1)CCc1ccccc1 [Example 11]	–	22	110
O=C(/C=C/c1ccc(O)c(CO)c1)CCc1ccccc1 [Example 10]	–	18	92
CON=C(C=Cc1ccc(O)c(OC)c1)CCCCc1ccccc1 [Example 26, 1-(4-Hydroxy-3-methoxyphenyl)-7-phenyl-1-hepten-3-one, O-methyl oxime]	–	3	–
COc1cc(/C=C/C(CCCCc2ccccc2)=NO)ccc1O [Example 17, 1-Hepten-3-one, 1-(4-hydroxy-3-methoxyphenyl)-7-phenyl, oxime]	–	1.7	23
Nc1cc(/C=C/C(CCc2ccccc2)=NO)ccc1O (single isomer, unassigned) [23 (Isomer A), 1-Penten-3-one, 1-(3-amino-4-hydroxyphenyl)-5-phenyl, oxime]	–	0.165	98
O=C(/C=C/c1ccc(O)cc1)CCCCc1ccccc1 [Example 3]	30	–	–
COc1cc(/C=C/C(=O)CCCc2ccccc2)ccc1O [Example 7]	–	18	–
OCc1cc(/C=C/C(CCCCc2ccccc2)=NO)ccc1O [Example 20]	–	8.7	–
COc1cc(C=CC(COc2ccccc2)=NO)ccc1O [Example 24, 1-(4-Hydroxy-3-methoxyphenyl)-4-phenoxy-1-buten-3-one oxime]	–	2.5	57
O=C(/C=C/c1ccc(O)c(O)c1)CCCc1ccccc1 [Example 8]	–	2	–
O=C(/C=C/c1ccc(O)c([N+](=O)[O-])c1)CCc1ccccc1 [Example 12, 1-Pentene-3-one, 1-(4-hydroxy-3-nitrophenyl)-5-phenyl]	22	–	135
Nc1cc(/C=C/C(=O)CCc2ccccc2)ccc1O [Example 15, 1-Pentene-3-one, 1-(3-amino-4-hydroxyphenyl)-5phenyl]	–	0.079	169
O=C(/C=C/c1ccc(O)c(O)c1)CCCCc1ccccc1 [Example 2, 1-(3,4-dihydroxyphenyl)-7-phenyl-1-hepten-3-one]	–	1.7	–
O=C(/C=C/c1ccc(O)c(Cl)c1)CCCCc1ccccc1 [Example 5]	–	8.8	–
COc1cc(/C=C/C(CCc2ccccc2)=NO)ccc1O [Example 21, 1-Penten-3-one, 1-(4-hydroxy-3-methoxyphenyl)-5-phenyl, oxime]	–	0.42	33
OCc1cc(/C=C/C(CCc2ccccc2)=NO)ccc1O [Example 22]	–	35	–
ON=C(/C=C/c1ccc(O)c(O)c1)CCCCc1ccccc1 [Example 19, 1-Hepten-3-one, 1-(3,4-dihydroxyphenyl)-7-phenyl, oxime]	–	1	125
